# Measured values published in article PMC5716993, “The interdomain flexible linker of the polypeptide GalNAc transferases dictates their long-range glycosylation preferences” (Nature Communications, 2017).
# “Also recorded” adds a separate entry of the source.
# What was measured:
# GalNAc-T4 = biological target: T1, GalNAc-T4 (Homo sapiens, UniProt Q8N4A0); test: Surface plasmon resonance; type: binding; details: SPR; peptide 0.01–5 mM; 25 °C, pH 7.5, 100 µM UDP, 4 mM MnCl2; in words
# T1 construct: amino acid residues 36–578 of the human GalNAc-T4; histidine tag (C); made in house; host or cells: Pichia pastoris SMD1168 (pPICZαA, secreted)
# Method: SPR experiments were performed at 25 °C with a Biacore X-100 apparatus (Biacore AB) in 25 mM Tris buffer, 1 mM DTT, 4 mM MnCl2, 100 µM UDP, 0.01% surfactant P20, pH 7.5 (running buffer) at 25 °C. Flow cells (CM5 sensor chip; Biacore) were activated for 7 min by injecting 140 µl of 50 mM N-hydroxysuccinimide (NHS): 200 mM ethyl-3(3dimethylamino) propylcarbodiimide (EDC). GalNAc-T4 was immobilized on a flow cell 2 by injection of a 100 µg/ml protein solution diluted with 10 mM sodium acetate buffer with a flow rate of 10 µl/min for 7 min followed by an injection of 130 µl ethanolamine to block any remaining activated groups on the surface. The level of immobilization reached was about 8000 RU. Flow cell 1, used as reference, was blocked with ethanolamine at the same conditions of flow cell 2 without immobilization of protein. Affinity experiments were made using a series of different concentrations of peptide 3 in the range of 0.01–5 mM with a flow rate of 30 µl/min during 100 s. Each injection was followed by a 100 s injection of running buffer (dissociation phase). No regeneration steps were performed between injections. Response data were collected at real time and analyzed with the Biacore® X-100 Evaluation software and plotted as response shift versus analyte concentration.
# GalNAc-T2 chimeras 1–3 = test: Specific activity / glycosylation preference of GalNAc-T2 chimeras 1-3; type: biochemical; details: in words
# Method: Specific activity determinations: GalNAc-T glycosylation reactions against (glyco)peptides 1–3 were performed with 75 mM sodium cacodylate, pH 6.5, 1 mM 2-mercaptoethanol, 10 mM MnCl2, 0.25 mM [^3H]-radiolabeled UDP-GalNAc (~6 × 10^8 DPM/µmole, American Radiolabeled Chemicals Inc.), and 1.4 mM (~1.25 mg/ml) of (glyco)peptide (from 4 mM stock in 1 mM TRIS, pH ~7) and varying concentrations (0.01 to 0.5 µM) of transferase (determined by OD280), giving a final reaction volumes of 20 µl in 100 µl capped Eppendorf tubes. […] Before performing time course experiments, the relative activity of each transferase was determined by trial and error against all three peptides to determine the optimal transferase concentration or incubation time that gave no more than 10% peptide glycosylation against the best substrate. […] Total UDP-[^3H]-GalNAc utilization (transfer to peptide substrate and transfer to water, i.e, hydrolysis) was determined by difference after scintillation counting (Beckman LS5801 scintillation counter) 1/20 of the sample before and after passage over Dowex 1 × 8. The extent of [^3H]-GalNAc transfer to peptide and the extent of hydrolysis was determined by Sephadex G10 gel filtration analysis, typically for the longest reaction time point, as previously described. […]
# T1 sequence (Q8N4A0 36-578): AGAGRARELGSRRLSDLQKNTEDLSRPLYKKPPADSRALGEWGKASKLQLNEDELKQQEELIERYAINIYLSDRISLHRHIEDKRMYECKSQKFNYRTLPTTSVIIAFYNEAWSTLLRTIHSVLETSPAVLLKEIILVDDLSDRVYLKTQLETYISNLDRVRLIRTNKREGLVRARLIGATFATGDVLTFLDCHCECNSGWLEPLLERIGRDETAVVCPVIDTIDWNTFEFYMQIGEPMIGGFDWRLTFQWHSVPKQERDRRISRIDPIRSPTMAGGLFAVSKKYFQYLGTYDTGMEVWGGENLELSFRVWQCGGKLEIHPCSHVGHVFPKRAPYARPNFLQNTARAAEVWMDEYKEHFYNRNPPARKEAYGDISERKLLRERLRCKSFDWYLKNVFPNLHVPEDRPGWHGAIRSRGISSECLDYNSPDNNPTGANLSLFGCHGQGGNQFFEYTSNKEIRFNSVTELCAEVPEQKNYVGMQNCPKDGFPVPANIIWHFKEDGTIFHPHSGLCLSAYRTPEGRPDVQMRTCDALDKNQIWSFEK
substance,measurement,setting,value
"GAT*GAGAGAGTTPGPG [Peptide 3, monoglycopeptide GAT*…, T* denotes the Thr-O-GalNAc moiety]",Kd determinability / binding saturation,GalNAc-T4,binding saturation could not be achieved; also recorded: binding saturation was not achieved
same,"specific activity and kinetic parameters against monoglycopeptide 3, change",GalNAc-T2 chimeras 1–3,remained relative constant
